# System: GEMS receptors with CBPvene (Bcl2–LD3 and Bcl2high variants), STAT3-driven SEAP in HEK293T cells
# Test: GEMS SEAP reporter assay, CBPvene (Bcl2high, LD3-v and Bcl2-v variants) with venetoclax
# Assay type: cell-based
# [1] = Supp Fig 10b, Bcl2-v4, venetoclax 316 nM
# [2] = Supp Fig 10b, Bcl2-v4, venetoclax 1000 nM
# [3] = Supp Fig 10b, Bcl2-v4, venetoclax 3160 nM
# [4] = Supp Fig 10b, Bcl2-v4, venetoclax 10000 nM
# [5] = Supp Fig 10b, Bcl2-v5, venetoclax 1 nM
# [6] = Supp Fig 10b, Bcl2-v5, venetoclax 3.16 nM
# [7] = Supp Fig 10b, Bcl2-v5, venetoclax 10 nM
# [8] = Supp Fig 10b, Bcl2-v5, venetoclax 31.6 nM
# [9] = Supp Fig 10b, Bcl2-v5, venetoclax 100 nM
# [10] = Supp Fig 10b, Bcl2-v5, venetoclax 316 nM
# [11] = Supp Fig 10b, Bcl2-v5, venetoclax 1000 nM
# [12] = Supp Fig 10b, Bcl2-v5, venetoclax 3160 nM
# [13] = Supp Fig 10b, Bcl2-v5, venetoclax 10000 nM
# [14] = Supp Fig 10b, Bcl2-v6, venetoclax 1 nM
# [15] = Supp Fig 10b, Bcl2-v6, venetoclax 3.16 nM
# [16] = Supp Fig 10b, Bcl2-v6, venetoclax 10 nM
# [17] = Supp Fig 10b, Bcl2-v6, venetoclax 31.6 nM
# [18] = Supp Fig 10b, Bcl2-v6, venetoclax 100 nM
# [19] = Supp Fig 10b, Bcl2-v6, venetoclax 316 nM
# [20] = Supp Fig 10b, Bcl2-v6, venetoclax 1000 nM
# [21] = Supp Fig 10b, Bcl2-v6, venetoclax 3160 nM
# [22] = Supp Fig 10b, Bcl2-v6, venetoclax 10000 nM
# [23] = Supp Fig 10b, Bcl2, venetoclax 1 nM
# [24] = Supp Fig 10b, Bcl2, venetoclax 3.16 nM
# [25] = Supp Fig 10b, Bcl2, venetoclax 10 nM
# [26] = Supp Fig 10b, Bcl2, venetoclax 31.6 nM
# [27] = Supp Fig 10b, Bcl2, venetoclax 100 nM
# [28] = Supp Fig 10b, Bcl2, venetoclax 316 nM
# [29] = Supp Fig 10b, Bcl2, venetoclax 1000 nM
# [30] = Supp Fig 10b, Bcl2, venetoclax 3160 nM
# [31] = Supp Fig 10b, Bcl2, venetoclax 10000 nM
# [32] = Supp Fig 10c, Bcl2-v1, venetoclax 1 nM
# [33] = Supp Fig 10c, Bcl2-v1, venetoclax 3.16 nM
# [34] = Supp Fig 10c, Bcl2-v2, venetoclax 1 nM
# [35] = Supp Fig 10c, Bcl2-v2, venetoclax 3.16 nM
# [36] = Supp Fig 10c, Bcl2-v3, venetoclax 1 nM
# [37] = Supp Fig 10c, Bcl2-v3, venetoclax 3.16 nM
# [38] = Supp Fig 10c, Bcl2-v5, venetoclax 1 nM
# [39] = Supp Fig 10c, Bcl2-v5, venetoclax 3.16 nM
# [40] = Supp Fig 10c, Bcl2-v6, venetoclax 1 nM
# [41] = Supp Fig 10c, Bcl2, venetoclax 1 nM
# [42] = Supp Fig 10c, Bcl2, venetoclax 3.16 nM
# [43] = SuppFigure 8a, LD3, venetoclax 1 nM
# [44] = SuppFigure 8a, LD3, venetoclax 3.16 nM
# [45] = SuppFigure 8a, LD3, venetoclax 100 nM
# [46] = SuppFigure 8a, LD3, venetoclax 316 nM
# [47] = SuppFigure 8a, LD3, venetoclax 1000 nM
# [48] = SuppFigure 8a, LD3, venetoclax 3160 nM
# [49] = SuppFigure 8a, LD3, venetoclax 10000 nM
# [50] = SuppFigure 8a, LD3v1, venetoclax 1 nM
# [51] = SuppFigure 8a, LD3v1, venetoclax 3.16 nM
# [52] = SuppFigure 8a, LD3v1, venetoclax 100 nM
# [53] = SuppFigure 8a, LD3v1, venetoclax 316 nM
# [54] = SuppFigure 8a, LD3v1, venetoclax 1000 nM
# [55] = SuppFigure 8a, LD3v1, venetoclax 3160 nM
# [56] = SuppFigure 8a, LD3v1, venetoclax 10000 nM
# [57] = SuppFigure 8a, LD3v2, venetoclax 1 nM
# [58] = SuppFigure 8a, LD3v2, venetoclax 3.16 nM
# [59] = SuppFigure 8a, LD3v2, venetoclax 100 nM
# [60] = SuppFigure 8a, LD3v2, venetoclax 316 nM
# [61] = SuppFigure 8a, LD3v2, venetoclax 1000 nM
# [62] = SuppFigure 8a, LD3v2, venetoclax 3160 nM
# [63] = SuppFigure 8a, LD3v2, venetoclax 10000 nM
# [64] = SuppFigure 8a, LD3v3, venetoclax 1 nM
# [65] = SuppFigure 8a, LD3v3, venetoclax 3.16 nM
# [66] = SuppFigure 8a, LD3v3, venetoclax 100 nM
# [67] = SuppFigure 8a, LD3v3, venetoclax 316 nM
# [68] = SuppFigure 8a, LD3v3, venetoclax 1000 nM
# [69] = SuppFigure 8a, LD3v3, venetoclax 3160 nM
# [70] = SuppFigure 8a, LD3v3, venetoclax 10000 nM
# [71] = SuppFigure 8b, LD3, venetoclax 1 nM
# [72] = SuppFigure 8b, LD3, venetoclax 3.16 nM
smiles,measurement,setting,value
CC1(C)CCC(CN2CCN(c3ccc(C(=O)NS(=O)(=O)c4ccc(NCC5CCOCC5)c([N+](=O)[O-])c4)c(Oc4cnc5[nH]ccc5c4)c3)CC2)=C(c2ccc(Cl)cc2)C1 [Venetoclax],SEAP normalized (max=100),"Supp Fig 10b, Bcl2-v4, venetoclax 100 nM",78.5961
same,SEAP,[1],14.4979
same,SEAP normalized (max=100),[1],43.8128
same,SEAP,[2],9.936
same,SEAP normalized (max=100),[2],30.0279
same,SEAP,[3],8.423
same,SEAP normalized (max=100),[3],25.4557
same,SEAP,[4],7.624
same,SEAP normalized (max=100),[4],23.0384
same,SEAP,[5],45.7217
same,SEAP normalized (max=100),[5],92.4038
same,SEAP,[6],49.4803
same,SEAP normalized (max=100),[6],100
same,SEAP,[7],40.0805
same,SEAP normalized (max=100),[7],81.0029
same,SEAP,[8],46.2116
same,SEAP normalized (max=100),[8],93.3938
same,SEAP,[9],42.8958
same,SEAP normalized (max=100),[9],86.6926
same,SEAP,[10],30.6164
same,SEAP normalized (max=100),[10],61.8759
same,SEAP,[11],14.0666
same,SEAP normalized (max=100),[11],28.4288
same,SEAP,[12],10.2265
same,SEAP normalized (max=100),[12],20.6679
same,SEAP,[13],6.4792
same,SEAP normalized (max=100),[13],13.0945
same,SEAP,[14],50.15
same,SEAP normalized (max=100),[14],13.184
same,SEAP,[15],55.0335
same,SEAP normalized (max=100),[15],14.4678
same,SEAP,[16],53.9332
same,SEAP normalized (max=100),[16],14.1785
same,SEAP,[17],141.748
same,SEAP normalized (max=100),[17],37.2641
same,SEAP,[18],380.387
same,SEAP normalized (max=100),[18],100
same,SEAP,[19],330.205
same,SEAP normalized (max=100),[19],86.8077
same,SEAP,[20],170.706
same,SEAP normalized (max=100),[20],44.877
same,SEAP,[21],26.4901
same,SEAP normalized (max=100),[21],6.964
same,SEAP,[22],10.3289
same,SEAP normalized (max=100),[22],2.715
same,SEAP,[23],34.2584
same,SEAP normalized (max=100),[23],5.865
same,SEAP,[24],39.5038
same,SEAP normalized (max=100),[24],6.763
same,SEAP,[25],88.7679
same,SEAP normalized (max=100),[25],15.1973
same,SEAP,[26],235.479
same,SEAP normalized (max=100),[26],40.3146
same,SEAP,[27],448.604
same,SEAP normalized (max=100),[27],76.8023
same,SEAP,[28],584.102
same,SEAP normalized (max=100),[28],100
same,SEAP,[29],347.384
same,SEAP normalized (max=100),[29],59.4733
same,SEAP,[30],20.111
same,SEAP normalized (max=100),[30],3.443
same,SEAP,[31],12.4887
same,SEAP normalized (max=100),[31],2.138
same,SEAP,[32],26.1238
same,SEAP normalized (max=100),[32],100
same,SEAP,[33],24.5196
same,SEAP normalized (max=100),[33],93.8591
same,SEAP,[34],41.9684
same,SEAP normalized (max=100),[34],37.8578
same,SEAP,[35],39.8265
same,SEAP normalized (max=100),[35],35.9258
same,SEAP,[36],35.0656
same,SEAP normalized (max=100),[36],94.2276
same,SEAP,[37],34.981
same,SEAP normalized (max=100),[37],94.0003
same,SEAP,[38],25.6864
same,SEAP normalized (max=100),[38],99.6735
same,SEAP,[39],25.7705
same,SEAP normalized (max=100),[39],100
same,SEAP,[40],44.5051
same,SEAP normalized (max=100),[40],24.1282
same,SEAP,[41],9.631
same,SEAP normalized (max=100),[41],6.451
same,SEAP,[42],8.848
same,SEAP normalized (max=100),[42],5.926
same,Normalized data (SEAP),[43],18.1283
same,Raw data (SEAP),[43],14.9284
same,Normalized data (SEAP),[44],15.4665
same,Raw data (SEAP),[44],12.7365
same,Normalized data (SEAP),[45],62.0224
same,Raw data (SEAP),[45],51.0746
same,Normalized data (SEAP),[46],79.6476
same,Raw data (SEAP),[46],65.5888
same,Normalized data (SEAP),[47],100
same,Raw data (SEAP),[47],82.3488
same,Normalized data (SEAP),[48],64.1557
same,Raw data (SEAP),[48],52.8314
same,Normalized data (SEAP),[49],26.7094
same,Raw data (SEAP),[49],21.9948
same,Normalized data (SEAP),[50],73.3263
same,Raw data (SEAP),[50],13.9463
same,Normalized data (SEAP),[51],77.9742
same,Raw data (SEAP),[51],14.8303
same,Normalized data (SEAP),[52],93.9945
same,Raw data (SEAP),[52],17.8773
same,Normalized data (SEAP),[53],100
same,Raw data (SEAP),[53],19.0195
same,Normalized data (SEAP),[54],92.9583
same,Raw data (SEAP),[54],17.6802
same,Normalized data (SEAP),[55],77.7035
same,Raw data (SEAP),[55],14.7788
same,Normalized data (SEAP),[56],63.3664
same,Raw data (SEAP),[56],12.052
same,Normalized data (SEAP),[57],16.5083
same,Raw data (SEAP),[57],13.4033
same,Normalized data (SEAP),[58],16.1655
same,Raw data (SEAP),[58],13.125
same,Normalized data (SEAP),[59],55.5208
same,Raw data (SEAP),[59],45.078
same,Normalized data (SEAP),[60],68.4407
same,Raw data (SEAP),[60],55.5679
same,Normalized data (SEAP),[61],100
same,Raw data (SEAP),[61],81.1913
same,Normalized data (SEAP),[62],59.661
same,Raw data (SEAP),[62],48.4395
same,Normalized data (SEAP),[63],19.9233
same,Raw data (SEAP),[63],16.176
same,Normalized data (SEAP),[64],79.8276
same,Raw data (SEAP),[64],14.5214
same,Normalized data (SEAP),[65],77.8421
same,Raw data (SEAP),[65],14.1602
same,Normalized data (SEAP),[66],89.5467
same,Raw data (SEAP),[66],16.2894
same,Normalized data (SEAP),[67],90.6522
same,Raw data (SEAP),[67],16.4905
same,Normalized data (SEAP),[68],100
same,Raw data (SEAP),[68],18.191
same,Normalized data (SEAP),[69],92.956
same,Raw data (SEAP),[69],16.9096
same,Normalized data (SEAP),[70],54.34
same,Raw data (SEAP),[70],9.885
same,Normalized data (SEAP),[71],3.308
same,Raw data (SEAP),[71],13.9036
same,Normalized data (SEAP),[72],3.395
same,Raw data (SEAP),[72],14.2688
